Tests used:
rats with stroke [1] = assay: Immediate treatment after stroke onset with different dosages of Ie (Zealonga scores); format: in vivo, SD rats
Protocol: A 10% chloral hydrate solution (400 mg/kg) was injected intraperitoneally into male SD rats (250 to 300 g) for anesthesia. An incision of about 2 cm in length was longitudinally made slightly on the right to the center of the neck, and the right carotid common artery, carotid external artery and carotid internal artery were dissected along the margin of the inner side of sternocleidomastoid muscles. The open incision in the carotid internal artery and the proximal end of the common carotid artery were occluded respectively with noninvasive arterial clips. A small incision was made on the carotid external artery, and the distal end of the carotid external artery was ligated. The arterial clip at the proximal end of the carotid external artery was released, and 10 μl blood was drawn before the proximal end of the common carotid artery was again occluded with a noninvasive arterial clip. The 10 μl blood drawn was placed in a 1 mL EP vial and kept at RT for 30 min until coagulation of blood, and then transferred into a −20° C. refrigerator for 1 h to allow solid coagulation. After 1 h, the blood clots were taken out, added into 1 mL saline, and then broken into relatively uniform microthrombus by using a steel spatula. The microthrombus suspension was then transferred into a 1 mL injector until use. At the same time when the clip on the carotid internal artery of the rat was released, the 1 mL thrombus suspension in the injector was slowly injected from the carotid external artery of the rat to its proximal end, and then was injected into the brain of the rat through the carotid internal artery. Subsequently, the proximal end of the carotid external artery was ligated, the arterial clips on the carotid internal artery and the carotid common artery were released, and blood flow was restored. Injection of urokinase in normal saline (positive control group, at a dosage of 20000 IU/kg), tPA in normal saline (positive control group, at a dosage of 3 mg/kg), normal saline (blank control group, at a dosage of 3 mL/kg), or compound Ie in normal saline (at a dosage of 1 μmol/kg, 0.1 μmol/kg or 0.01 μmol/kg) was carried out. 24 h after the rats were awake, the degree of damage in neural function was evaluated by the Zealonga method. A score of 0 indicated no sign of loss in neural function, 1 indicated the front limbs on the undamaged side could not stretch out, 2 indicated walking toward the undamaged side, 3 indicated tail-chasing walking in circles toward the undamaged side, 4 indicated involuntary walking with disturbance of consciousness, and 5 indicated death. As shown in the results, in rats receiving immediate treatment after the onset of stroke with […] compound Ie, the percentage of rats with a neural function score of 0 was 60%, 30%, and 0%, respectively; and the percentage of rats with a neural function score of 1 was 20%, 30%, and 10%, respectively.

rats with stroke [2] = assay: Successive treatments starting 4 h after the onset of stroke (Zealonga scores); format: in vivo, SD rats; conditions: for number of rats scored Score 0 / number of rats scored Score 1 / number of rats scored Score 2: urokinase 20000 IU/kg once per day from 4 h after stroke onset, n=6
Protocol: The efficacy was represented by neural function scores, and a lower score indicates higher efficacy. A 10% chloral hydrate solution was injected intraperitoneally into male SD rats at a dosage of 400 mg/kg body weight for anesthesia. A longitudinal incision was made at the center of the neck, and the right carotid common artery trunk was dissected (about 3 cm in length). Carotid external artery branches were each dissected and ligated at the hyoid level, and the carotid internal artery was dissected at the swollen part of the neck. The open incision in the carotid internal artery and the proximal end of the common carotid artery were occluded respectively with noninvasive arterial clips, and the distal end of the carotid external artery was ligated. A catheter containing 0.5 mL thrombus suspension in normal saline was inserted in the carotid external artery trunk. At the same time when the clip on the carotid internal artery was released, the 0.5 mL thrombus suspension in normal saline in the catheter slowly flew from the carotid external artery to its proximal end, and then was injected into the arteries in brain through the carotid internal artery. Subsequently, the proximal end of the carotid artery was ligated, the arterial clips on the carotid internal artery and the common carotid artery were released, and blood flow was restored. After the wound was stitched up, 20,000 IU penicillin was intramuscularly injected for prevention from infection. After 4 h, compound Ie in normal saline (at a dosage of 1 μmol/kg, n=1), urokinase in normal saline (at a dosage of 20000 IU/kg, n=6) or tPA in normal saline (at a dosage of 3 mg/kg, n=6) was infused through the tail vein. Infusion of compound Ie in normal saline through rat tail vein was carried out once per day for 6 consecutive days, observed for 7 days. The rats were compared to themselves each day, and evaluated for degree of damage in neural function by the Zealonga method. Alternatively, infusion of urokinase in normal saline through rat tail vein was carried out once per day for two consecutive days, the rats were compared to themselves each day, and evaluated for the degree of damage in neural function by the Zealonga method. Alternatively, infusion of tPA in normal saline through rat tail vein was carried out once per day for two consecutive days, the rats were compared to themselves each day, and evaluated for the degree of damage in neural function by the Zealonga method. A score of 0 indicated no sign of loss in neural function, 1 indicated the front limbs on the undamaged side could not stretch out, 2 indicated walking toward the undamaged side, 3 indicated tail-chasing walking in circles toward the undamaged side, 4 indicated involuntary walking with disturbance of consciousness, and 5 indicated death.

## urokinase
Rats with stroke [1]; 20000 IU/kg urokinase
  percentage of rats with a neural function score of 0: 10%
  percentage of rats with a neural function score of 1: 50%
Rats with stroke [1]; urokinase 20000 IU/kg, n = 10
  number of rats scored Score 0: 1
  number of rats scored Score 1: 5
  number of rats scored Score 2: 0
  number of rats scored Score 3: 3
  number of rats scored Score 4: 1
  number of rats scored Score 5: 0
Rats with stroke [2]; Day 1
  number of rats scored Score 0: 2 rats
  number of rats scored Score 1: 3 rats
  number of rats scored Score 2: 1 rat rats
Rats with stroke [2]; Day 2
  number of rats scored Score 0: 3 rats
  number of rats scored Score 1: 1 rat^ rats
  number of rats scored Score 2: 1 rat rats
Rats with stroke [2]; out of 6 rats, within 48 h, urokinase 20000 IU/kg each day from 4 h after stroke onset
  rats died: 2
Rats with stroke [2]; urokinase 20000 IU/kg each day from 4 h after stroke onset
  autopsy on the dead rats: hemorrhage in internal organs, particularly severe hemorrhage in lungs

— patent US10806798B2, “Compound with effects of thrombolysis, free radical scavenging and thrombus-targeting” (Shanghai Lumosa Therapeutics Co., Ltd., priority 2012, dated 2020)
